Laboratory results from publication PMC12363342, “Investigating the N-terminal linker histone H1 subtypes as substrates for JmjC lysine demethylases” (RSC Chemical Biology, 2025).
Square brackets hold non-standard residues; d marks the D form. Ends that are not written are not given here. Lys(Me2) = CN(C)CCCC[C@H](N)C(=O)O

What was measured:
[1] = test system: KDM3B; experiment: LC-MS demethylation activity assay, KDM3B; assay type: biochemical, human; settings: 2 μM KDM, 10 μM H1/H3 peptide, 10 μM FAS, 100 μM LAA, 20 μM 2OG, 50 mM HEPES pH 7.5, 2 h, room temperature; for KDM3B demethylation activity, M: M (mono-) initial methylation state; for KDM3B demethylation activity, D: D (di-) initial methylation state
Description: (§1) The substrate specificity of JmjC KDMs for H1 was examined using liquid chromatography coupled to mass spectrometry (LC-MS) assays. The H1 peptides (10 μM) were incubated with the recombinant KDM (2 μM) in HEPES buffer at pH 7.5 at room temperature for 2 h, in the presence of ferrous(II) ammonium sulfate (FAS, 10 μM), sodium ascorbate (LAA, 100 μM) and 2OG (20 μM), and then quenched with formic acid. N^ε-Methylated H3K9 and H3K36 peptides were used as positive controls (Fig. 3–5 and Fig. S2–S6).[26]
(§2) The catalytic domains of the JmjC KDMs used were recombinantly produced as reported in either Escherichia coli (KDM4AM1-L359,[38] KDM4DM1-L359,[39] KDM4EM1-R336,[30] KDM6BD1141–E1590[40] and KDM3CL2157-L2500) or Sf9 cells (KDM3AT515–S1317, KDM3B882–1761, and KDM5DM1-D775) as N-terminally His6-tagged proteins. […] To produce proteins, DNA sequences encoding for KDM3A, KDM3B and KDM5D were inserted into the pFB-LIC vector, containing a TEV-protease cleavable N-terminal 6x-histidine tag via ligation independent cloning (LIC). The resultant plasmids were transformed into baculovirus and Sf9 cells ([…]) which were infected with the virus stock. The cells were grown at 27 °C and 90 rpm for 70 h. Cells were then harvested and suspended in 100 mL of lysis buffer (50 mM HEPES-NaOH, pH 7.4, 500 mM NaCl, 20 mM imidazole, 0.5 mM Tris (2-carboxyethyl)phosphine (TCEP), 5% (v/v) glycerol). […] The supernatant was loaded onto a Ni-NTA gravity column, washed with 10 column volume of lysis buffer and eluted using the elution buffer (50 mM HEPES-NaOH, pH 7.4, 500 mM NaCl, 300 mM imidazole, 0.5 mM TCEP, 5% (v/v) glycerol). The eluted protein was further purified using S200 gel filtration column chromatography (50 mM HEPES-NaOH, pH 7.4, 150 mM NaCl, 0.5 mM TCEP and 5% glycerol). Protein purity was analysed by SDS-PAGE and further confirmed by mass spectrometry. Selected fractions were pooled, concentrated and stored at −80 °C.
(§3) All reagents were purchased from Sigma Aldrich and were of the highest grade available. Ferrous(II) ammonium sulfate (FAS) solutions were prepared freshly by dissolving FAS to 400 mM in 20 mM HCl with subsequent dilution to 1 mM using deionized water. Fresh 2OG (10 mM) and LAA (50 mM) solutions were prepared by dissolving the solids in deionised water. All enzyme reactions were performed in 384-well plates (Greiner Bio-One) with a final reaction volume of 50 μL. Substrate mixtures contained 50 mM HEPES pH 7.5, LAA (100 μM), FAS (10 μM), 2OG (20 μM) and an H1 isoform peptide (10 μM). Reactions were initiated by the addition of enzyme to a final concentration of 2.0 μM. After 2 h, the reactions were stopped by the addition of 5 μL of 10% (v/v) LC-MS grade formic acid (Fisher Scientific) to a final concentration of 1% (v/v). Product analyses were performed by liquid chromatography-mass spectrometry (LC-MS) using an Agilent 1290 infinity II LC system equipped with an Agilent 1290 multisampler and an Agilent 1290 high speed pump and connected to an Agilent 6550 accurate mass iFunnel quadrupole time of flight (Q-TOF) mass spectrometer. 1 μL of the reaction mixture was injected onto a 1.8 μm × 2.1 × 50 mm ZORBAX RRHD Eclipse Plus C18 column (Agilent). Solvent A consisted of HPLC grade water containing 0.1% (v/v) formic acid and solvent B consisted of MeCN containing 0.1% (v/v) formic acid. Peptides were separated using a stepwise gradient (0 min – 95% solvent A, 1.0 min – 80% solvent A, 3.0 min – 45% solvent A, 4.0 min – 45% solvent A, 5.0 min – 0% solvent A, 6.0 min – 0% solvent A, 7.0 min – 95% solvent A). This was followed by a 3 min post-run with 95% solvent A to re-equilibrate the column. All flow rates were 0.2 mL min^−1. A blank injection of HPLC grade water was carried out between each sample injection.

[2] = test system: KDM4A; experiment: LC-MS demethylation activity assay, KDM4A; assay type: biochemical, human; settings: 2 μM KDM, 10 μM H1/H3 peptide, 10 μM FAS, 100 μM LAA, 20 μM 2OG, 50 mM HEPES pH 7.5, 2 h, room temperature; for KDM4A demethylation activity, M: M (mono-) initial methylation state; for KDM4A demethylation activity, D: D (di-) initial methylation state
Description: as §1, §2, §3

[3] = test system: KDM6B; experiment: LC-MS demethylation activity assay, KDM6B; assay type: biochemical, human; settings: 2 μM KDM, 10 μM H1/H3 peptide, 10 μM FAS, 100 μM LAA, 20 μM 2OG, 50 mM HEPES pH 7.5, 2 h, room temperature; for KDM6B demethylation activity, M: M (mono-) initial methylation state; for KDM6B demethylation activity, D: D (di-) initial methylation state
Description: as §1, §2, §3

[4] = target: T1, KDM4D (Homo sapiens, UniProt Q6B0I6); experiment: LC-MS demethylation activity assay, KDM4D; assay type: biochemical; settings: 10 μM FAS, 100 μM LAA, 20 μM 2OG, room temperature; for KDM4D demethylation activity, M / KDM4D demethylation activity, D: 2 μM KDM, 10 μM H1/H3 peptide, 50 mM HEPES pH 7.5, 2 h; for KDM4D demethylation activity, M: M (mono-) initial methylation state; for substrate conversion (demethylation) by KDM4D: 2 μM KDM4D, 10 μM peptide, HEPES pH 7.5, 2 h; for KDM4D demethylation activity, D: D (di-) initial methylation state
T1 construct: KDM4AM1-L359,[38]; KDM4DM1-L359,[39]; KDM4EM1-R336,[30]; His6 (N); made in house; host or cells: Escherichia coli
T1 sequence (Q6B0I6 1-359): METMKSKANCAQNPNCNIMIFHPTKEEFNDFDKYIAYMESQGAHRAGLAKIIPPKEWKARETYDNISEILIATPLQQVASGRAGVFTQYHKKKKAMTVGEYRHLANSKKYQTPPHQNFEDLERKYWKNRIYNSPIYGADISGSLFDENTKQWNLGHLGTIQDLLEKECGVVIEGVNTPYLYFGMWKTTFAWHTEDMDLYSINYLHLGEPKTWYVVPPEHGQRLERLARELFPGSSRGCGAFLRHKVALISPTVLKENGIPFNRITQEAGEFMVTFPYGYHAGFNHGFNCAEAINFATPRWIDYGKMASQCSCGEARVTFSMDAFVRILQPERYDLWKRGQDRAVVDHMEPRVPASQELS
Description: as §1, §2, §3

[5] = test system: KDM3A; experiment: LC-MS demethylation activity assay, KDM3A; assay type: biochemical, human; settings: 2 μM KDM, 10 μM H1/H3 peptide, 10 μM FAS, 100 μM LAA, 20 μM 2OG, 50 mM HEPES pH 7.5, 2 h, room temperature; for KDM3A demethylation activity, M: M (mono-) initial methylation state; for KDM3A demethylation activity, D: D (di-) initial methylation state
Description: as §1, §2, §3

[6] = test system: KDM5D; experiment: LC-MS demethylation activity assay, KDM5D; assay type: biochemical, human; settings: 2 μM KDM, 10 μM H1/H3 peptide, 10 μM FAS, 100 μM LAA, 20 μM 2OG, 50 mM HEPES pH 7.5, 2 h, room temperature; for KDM5D demethylation activity, M: M (mono-) initial methylation state; for KDM5D demethylation activity, D: D (di-) initial methylation state
Description: as §1, §2, §3

[7] = test system: KDM3C; experiment: LC-MS demethylation activity assay, KDM3C; assay type: biochemical, human; settings: 2 μM KDM, 10 μM H1/H3 peptide, 10 μM FAS, 100 μM LAA, 20 μM 2OG, 50 mM HEPES pH 7.5, 2 h, room temperature; for KDM3C demethylation activity, M: M (mono-) initial methylation state; for KDM3C demethylation activity, D: D (di-) initial methylation state
Description: as §1, §2, §3

[8] = target: T2, KDM4E (Homo sapiens, UniProt B2RXH2); experiment: LC-MS demethylation activity assay, KDM4E; assay type: biochemical; settings: room temperature; for mono-methylated product formed by KDM4E: 2 μM KDM4E, 10 μM peptide, standard conditions, 2 h; for KDM4E demethylation activity, D / KDM4E demethylation activity, M: 2 μM KDM, 10 μM H1/H3 peptide, 10 μM FAS, 100 μM LAA, 20 μM 2OG, 50 mM HEPES pH 7.5, 2 h; for KDM4E demethylation activity, D: D (di-) initial methylation state; for KDM4E demethylation activity, M: M (mono-) initial methylation state
T2 construct: KDM4DM1-L359,[39]; KDM4EM1-R336,[30]; His6 (N); made in house; host or cells: Escherichia coli
T2 sequence (B2RXH2 1-336): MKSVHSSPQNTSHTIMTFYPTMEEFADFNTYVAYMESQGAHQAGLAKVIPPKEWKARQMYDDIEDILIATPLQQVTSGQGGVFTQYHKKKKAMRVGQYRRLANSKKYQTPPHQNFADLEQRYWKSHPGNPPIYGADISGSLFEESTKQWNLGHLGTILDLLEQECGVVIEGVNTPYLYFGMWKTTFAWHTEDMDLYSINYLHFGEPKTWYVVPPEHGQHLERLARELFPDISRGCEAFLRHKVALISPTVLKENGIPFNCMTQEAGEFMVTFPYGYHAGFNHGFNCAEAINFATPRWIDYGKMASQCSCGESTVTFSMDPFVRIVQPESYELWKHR
Description: as §1, §2, §3

Substance | KDM3B demethylation activity, M [1] | KDM4A demethylation activity, M [2] | KDM6B demethylation activity, M [3] | KDM4D demethylation activity, M [4] | KDM3A demethylation activity, M [5] | KDM5D demethylation activity, M [6] | KDM3C demethylation activity, M [7] | KDM3B demethylation activity, D [1] | KDM4A demethylation activity, D [2] | KDM6B demethylation activity, D [3] | substrate conversion (demethylation) by KDM4D [4] | KDM4D demethylation activity, D [4] | KDM3A demethylation activity, D [5] | KDM5D demethylation activity, D [6] | mono-methylated product formed by KDM4E [8] [%] | KDM4E demethylation activity, D [8] | KDM3C demethylation activity, D [7] | KDM4E demethylation activity, M [8]
KKKAAKKmeAGGTPRKA [Peptide H1.2K26me, 15-mer linker histone H1.2 residues 20-34 peptide, mono-methylated K26] | ● [red] | ● [red] | ● [red] | ● [red] | ● [red] | ● [red] | ● [red] | – | – | – | – | – | – | – | – | – | – | –
KKKAAK[Lys(Me2)]AGGTPRKA [Peptide H1.2K26me2, 15-mer linker histone H1.2 residues 20-34 peptide, di-methylated K26] | – | – | – | – | – | – | – | ● [red] | ● [red] | ● [red] | 20–35% | ● [yellow] (yellow dots indicate moderate demethylation (<50% conversion)) | ● [red] | ● [red] | ~64 | ● [green] (green dots indicate good demethylation (>50% conversion)) | ● [red] | –
KKKAAKmeKAGGTPRKA [Peptide H1.2K25me, 15-mer linker histone H1.2 residues 20-34 peptide, mono-methylated K25] | ● [red] | ● [red] | ● [red] | ● [red] | ● [red] | ● [red] | ● [red] | – | – | – | – | – | – | – | – | – | – | ● [red]
KKKAA[Lys(Me2)]KAGGTPRKA [Peptide H1.2K25me2, 15-mer linker histone H1.2 residues 20-34 peptide, di-methylated K25] | – | – | – | – | – | – | – | ● [red] | ● [black] (black dots indicate low-level demethylation (<10% conversion)) | ● [red] | 20–35% | ● [red] | ● [red] | ● [red] | ~64 | ● [red] | ● [red] | –
KKKAKKmeAGATAGKRK [Peptide H1.3K25me, 15-mer linker histone H1.3 residues 20-34 peptide, mono-methylated K25] | ● [red] | ● [red] | ● [red] | ● [red] | ● [red] | ● [red] | ● [red] | – | – | – | – | – | – | – | – | – | – | ● [red]
KKKAK[Lys(Me2)]AGATAGKRK [Peptide H1.3K25me2, 15-mer linker histone H1.3 residues 20-34 peptide, di-methylated K25] | – | – | – | – | – | – | – | ● [red] | ● [red] | ● [red] | – | ● [red] | ● [red] | ● [red] | – | ● [red] | ● [red] | –
KKKAKmeKAGATAGKRK [Peptide H1.3K24me, 15-mer linker histone H1.3 residues 20-34 peptide, mono-methylated K24] | ● [red] | ● [red] | ● [red] | ● [red] | ● [red] | ● [red] | ● [red] | – | – | – | – | – | – | – | – | – | – | –
KKKARKmeSAGAAKRKA [Peptide H1.4K25me, 15-mer linker histone H1.4 residues 20-34 peptide, mono-methylated K25] | ● [red] | ● [red] | ● [red] | ● [black] (black dots indicate low-level demethylation (<10% conversion)) | ● [red] | ● [red] | ● [red] | – | – | – | – | – | – | – | – | – | – | –
